Test results from EPA's CvTdb concentration-time database.

Tests used:
Rat [1] = assay: concentration in liver after dosing; conditions: dosed: Perfluorodecanoic acid, 10 mg/kg, oral
Rat [2] = assay: concentration in plasma after dosing
Rat [3] = assay: concentration in plasma after dosing; conditions: dosed: Perfluorodecanoic acid, 2 mg/kg, iv, Male, F344
Rat [4] = assay: concentration in liver after dosing; conditions: 1848 h; dosed: Perfluorodecanoic acid; 10 mg/kg; oral; Female; Harlan Sprague Dawley
Rat [5] = assay: concentration in brain after dosing; conditions: dosed: Perfluorodecanoic acid, 10 mg/kg, oral
Rat [6] = assay: concentration in kidney after dosing; conditions: dosed: Perfluorodecanoic acid, 10 mg/kg, oral
Rat [7] = assay: concentration in plasma after dosing; conditions: 20 h; dosed: Di-n-butyl phthalate; 200 mg/kg; oral; Male; Sprague-Dawley
Rat [8] = assay: concentration in plasma after dosing; conditions: 1 h; dosed: Di-n-butyl phthalate; 20 mg/kg; iv; Male; Sprague-Dawley
Rat [9] = assay: concentration in plasma after dosing; conditions: 0.25 h; dosed: dichloroacetic acid; 10 mg/kg; oral; Male; Harlan Sprague Dawley

O=C(O)C(F)(F)C(F)(F)C(F)(F)C(F)(F)C(F)(F)C(F)(F)C(F)(F)C(F)(F)C(F)(F)F [Perfluorodecanoic acid]
Conditions | concentration in brain, Rat [5] [ng/g] | concentration in kidney, Rat [6] [ng/g] | concentration in liver, Rat [1] [ng/g]
1 h, Female, Harlan Sprague Dawley | 581 | 18100 | 43800
1 h, Male, Harlan Sprague Dawley | – | 12400 | 56500
24 h, Female, Harlan Sprague Dawley | 2750 | 46800 | 102000
24 h, Male, Harlan Sprague Dawley | 2360 | 24600 | 107000
24 h, Male, Harlan Sprague Dawley - this seems too small | 2580 | 29500 | 125000
864 h, Female, Harlan Sprague Dawley | 926 | 18300 | 45900
864 h, Male, Harlan Sprague Dawley | 1240 | 11100 | 56700
1848 h, Female, Harlan Sprague Dawley | 526 | 5210 | 21200
1848 h, Male, Harlan Sprague Dawley | 602 | 4000 | 32600
3360 h, Female, Harlan Sprague Dawley | – | 2740 | 7920
3360 h, Male, Harlan Sprague Dawley | – | 1530 | 9980

Rat [2], dosed: Perfluorodecanoic acid, 2 mg/kg
Conditions | concentration in plasma [ng/mL]
0.5 h, oral, Male, Harlan Sprague Dawley | 1650
1 h, iv, Male, F344 | 5650
1 h, oral, Male, Harlan Sprague Dawley | 3170
2 h, oral, Male, Harlan Sprague Dawley | 3960
5 min, iv, Female, Harlan Sprague-Dawley | 7650
5 min, iv, Male, F344 | 7380
6 h, iv, Male, F344 | 5650
12 h, iv, Female, Harlan Sprague-Dawley | 5320
12 h, iv, Male, F344 | 6200
12 h, oral, Male, Harlan Sprague Dawley | 7680
24 h, iv, Male, F344 | 4850
24 h, oral, Male, Harlan Sprague Dawley | 6970
192 h, iv, Female, Harlan Sprague-Dawley | 5740
192 h, iv, Male, F344 | 2770
192 h, oral, Male, Harlan Sprague Dawley | 4850
528 h, iv, Male, F344 | 2240
528 h, oral, Male, Harlan Sprague Dawley | 2640
864 h, iv, Male, F344 | 1230
1200 h, iv, Female, Harlan Sprague-Dawley | 2250
1200 h, iv, Male, F344 | 719
1200 h, oral, Male, Harlan Sprague Dawley | 1700
1848 h, iv, Male, F344 | 437
1848 h, oral, Male, Harlan Sprague Dawley | 907
2520 h, iv, Male, F344 | 124
2520 h, oral, Male, Harlan Sprague Dawley | 687
3360 h, iv, Male, F344 | 277
3360 h, oral, Male, Harlan Sprague Dawley | 498

Rat [3]
Conditions | concentration in plasma [ng/mL]
6 h | 5760
864 h | 777

Conditions | concentration in liver [ng/g]
Rat [4] | 26000

CCCCOC(=O)c1ccccc1C(=O)O [Mono-n-butyl phthalate]
Conditions | concentration in plasma [ng/mL]
Rat [7] | 1870
Rat [8] | 2550

Rat [2], dosed: Di-n-butyl phthalate, Male, Sprague-Dawley
Conditions | concentration in plasma [ng/mL]
0.25 h, 100 mg/kg, oral | 26200
0.5 h, 50 mg/kg, oral | 16600
0.5 h, 100 mg/kg, oral | 40300
1 h, 20 mg/kg, iv | 3060
1 h, 50 mg/kg, oral | 5560
1 h, 100 mg/kg, oral | 23500
1.5 h, 20 mg/kg, iv | 517
2 h, 20 mg/kg, iv | 945
2 h, 50 mg/kg, oral | 2700
2 h, 100 mg/kg, oral | 9480
2 h, 200 mg/kg, oral | 114000
3 h, 20 mg/kg, iv | 1380
3 h, 50 mg/kg, oral | 2390
3 h, 100 mg/kg, oral | 6880
4 h, 20 mg/kg, iv | 667
4 h, 100 mg/kg, oral | 10000
5 h, 20 mg/kg, iv | 1120
5 min, 20 mg/kg, iv | 29400
5 min, 50 mg/kg, oral | 3240
5 min, 100 mg/kg, oral | 6120
6 h, 20 mg/kg, iv | 627
6 h, 50 mg/kg, oral | 4090
6 h, 100 mg/kg, oral | 7390
8 h, 20 mg/kg, iv | 522
10 h, 50 mg/kg, oral | 506
10 h, 100 mg/kg, oral | 3970
10 min, 20 mg/kg, iv | 31300
10 min, 50 mg/kg, oral | 20500
15 h, 50 mg/kg, oral | 629
15 h, 100 mg/kg, oral | 538
20 h, 100 mg/kg, oral | 492
20 h, 200 mg/kg, oral | 1820
20 min, 20 mg/kg, iv | 24200
20 min, 50 mg/kg, oral | 13800
24 h, 100 mg/kg, oral | 517
40 min, 20 mg/kg, iv | 5840
40 min, 50 mg/kg, oral | 12000

O=C(O)C(Cl)Cl [dichloroacetic acid]
Rat [2], dosed: dichloroacetic acid
Conditions | concentration in plasma [ng/mL]
0.25 h, 10 mg/kg, oral, Male, Harlan Sprague Dawley | 1600
0.25 h, 100 mg/kg, oral, Male, F344 | 24900
0.5 h, 10 mg/kg, oral, Male, Harlan Sprague Dawley | 224
1 h, 40 mg/kg, oral, Female, Harlan Sprague Dawley | 5910
1 h, 60 mg/kg, iv, Female, Harlan Sprague-Dawley | 23200
1.25 h, 40 mg/kg, oral, Female, Harlan Sprague Dawley | 3600
1.25 h, 100 mg/kg, oral, Male, F344 | 23000
1.5 h, 40 mg/kg, oral, Female, Harlan Sprague Dawley | 4500
2 h, 40 mg/kg, oral, Female, Harlan Sprague Dawley | 2200
2 h, 60 mg/kg, iv, Female, Harlan Sprague-Dawley | 1670
2 h, 100 mg/kg, oral, Male, F344 | 44600
2 min, 10 mg/kg, iv, Male, F344 | 23500
2 min, 10 mg/kg, oral, Male, Harlan Sprague Dawley | 222
2 min, 40 mg/kg, oral, Female, Harlan Sprague Dawley | 1530
2 min, 100 mg/kg, oral, Male, F344 | 1590
4 h, 100 mg/kg, oral, Male, F344 | 49600
5 min, 10 mg/kg, iv, Male, F344 | 15300
5 min, 10 mg/kg, oral, Male, Harlan Sprague Dawley | 822
5 min, 40 mg/kg, oral, Female, Harlan Sprague Dawley | 3100
5 min, 100 mg/kg, oral, Male, F344 | 7760
6 h, 100 mg/kg, oral, Male, F344 | 25000
8 h, 100 mg/kg, oral, Male, F344 | 48300
10 min, 10 mg/kg, iv, Male, F344 | 7720
10 min, 10 mg/kg, oral, Male, Harlan Sprague Dawley | 1450
10 min, 40 mg/kg, oral, Female, Harlan Sprague Dawley | 9870
10 min, 100 mg/kg, oral, Male, F344 | 11800
20 min, 10 mg/kg, iv, Male, F344 | 1840
20 min, 10 mg/kg, oral, Male, Harlan Sprague Dawley | 829
20 min, 40 mg/kg, oral, Female, Harlan Sprague Dawley | 5350
20 min, 100 mg/kg, oral, Male, F344 | 5620
40 min, 10 mg/kg, oral, Male, Harlan Sprague Dawley | 184
40 min, 40 mg/kg, oral, Female, Harlan Sprague Dawley | 13900
40 min, 100 mg/kg, oral, Male, F344 | 53800
50 min, 10 mg/kg, oral, Male, Harlan Sprague Dawley | 170

Conditions | concentration in plasma [ng/mL]
Rat [9] | 720
